pEC50: −log10 of the molar value. Where “and” joins values, the source holds several entries; their conditions need not be identical. Identical values can stand only once.
What was measured:
[1] = Cytotoxicity assay (CellTiter-Glo, 72 h), SKOV-3; format: cell-based, human; details: human, raw replicate data, read-out: SKOV3 viability (%)
Method in brief: (§1)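 Cells were seeded at 1000 cells/well and allowed 4 h at 37 °C, 5% CO2 before 2-fold compound dilutions in DMSO were added (0.5% final DMSO). After 72 h exposure, viability was read by CellTiter-Glo luminescence.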

[2] = tested on: human ovarian adenocarcinoma SKOV-3 cells; assay: Cytotoxicity assay (CellTiter-Glo, 72 h), SKOV-3; format: cell-based; details: raw replicate data
Method in brief: as §1

FKBP12 and mTOR = target: T1, FKBP12 and mTOR (Homo sapiens, UniProt P42345+P62942); assay: Fluoppi analysis: induction of FKBP12-mTOR complex formation in transfected HeLa cells; format: cell-based; details: for Foci intensity: raw data, one replicate per line
T1 construct: host or cells: HeLa cells
T1 sequence (P42345 2025-2114 limits assumed): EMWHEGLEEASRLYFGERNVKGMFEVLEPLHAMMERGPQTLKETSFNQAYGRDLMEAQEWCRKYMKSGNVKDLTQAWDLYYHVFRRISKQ
T1 sequence (P62942 whole entry): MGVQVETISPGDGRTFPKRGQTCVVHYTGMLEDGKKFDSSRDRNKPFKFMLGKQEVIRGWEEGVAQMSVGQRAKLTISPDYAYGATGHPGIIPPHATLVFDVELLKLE
Method in brief: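 Complex formation read as fluorescent foci: foci intensity over total per-cell intensity, imaged (×20, 9 fields/well) after fixation and Hoechst stain, giving EC50. Cells: HeLa transiently expressing hAG-mTOR and Ash-FKBP12, exposed to compound concentrations for 1 h at 37 °C.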

[3] = Cytotoxicity assay (CellTiter-Glo, 72 h), Jurkat; format: cell-based; details: human, Jurkat cells (T lymphoma), raw data (replicates)
Method in brief: as §1

T lymphoma Jurkat cells = assay: Cytotoxicity assay (CellTiter-Glo, 72 h), Jurkat; format: cell-based; details: raw data (replicates)
Method in brief: as §1

## COC1CC2CCC(C)C(O)(O2)C(=O)C(=O)N2CCCCC2C(=O)OC(C(C)CC2CCC(O)C(OC)C2)CC(=O)C(C)C=C(C)C(O)CC(=O)C(C)C=C(C)C=CC=CC=C1C (stereo not drawn) [Compound 14]
[1]; SKOV-3 cells (ovarian adenocarcinoma), conc 9.53674e-5 uM
  viability at 72 h, 9.53674e-05 uM: 105%
[1]; SKOV-3 cells (ovarian adenocarcinoma), conc 0.000190735 uM
  viability at 72 h, 0.000190735 uM: 103%
[1]; SKOV-3 cells (ovarian adenocarcinoma), conc 0.00038147 uM
  viability at 72 h, 0.00038147 uM: 104%
[1]; SKOV-3 cells (ovarian adenocarcinoma), conc 0.000762939 uM
  viability at 72 h, 0.000762939 uM: 102%
[1]; SKOV-3 cells (ovarian adenocarcinoma), conc 0.00152588 uM
  viability at 72 h, 0.00152588 uM: 97.9%
[1]; SKOV-3 cells (ovarian adenocarcinoma), conc 0.00305176 uM
  viability at 72 h, 0.00305176 uM: 98%
[1]; SKOV-3 cells (ovarian adenocarcinoma), conc 0.00610352 uM
  viability at 72 h, 0.00610352 uM: 103%
[1]; SKOV-3 cells (ovarian adenocarcinoma), conc 0.012207 uM
  viability at 72 h, 0.012207 uM: 97.1%
[1]; SKOV-3 cells (ovarian adenocarcinoma), conc 0.0244141 uM
  viability at 72 h, 0.0244141 uM: 106%
[1]; SKOV-3 cells (ovarian adenocarcinoma), conc 0.0488281 uM
  viability at 72 h, 0.0488281 uM: 100%
[1]; SKOV-3 cells (ovarian adenocarcinoma), conc 0.0976562 uM
  viability at 72 h, 0.0976562 uM: 100%
[1]; SKOV-3 cells (ovarian adenocarcinoma), conc 0.195312 uM
  viability at 72 h, 0.195312 uM: 97.3%
[1]; SKOV-3 cells (ovarian adenocarcinoma), conc 0.390625 uM
  viability at 72 h, 0.390625 uM: 99.4%
[1]; SKOV-3 cells (ovarian adenocarcinoma), conc 12.5 uM
  viability at 72 h, 12.5 uM: 81.9%
[1]; SKOV-3 cells (ovarian adenocarcinoma), conc 25 uM
  viability at 72 h, 25 uM: 73.7%
[1]; SKOV-3 cells (ovarian adenocarcinoma), conc 50 uM
  viability at 72 h, 50 uM: 60.7%
[1]; SKOV-3 ovarian adenocarcinoma cells, conc 0.78125 uM
  viability at 72 h, 0.78125 uM: 93.1%
[1]; SKOV-3 ovarian adenocarcinoma cells, conc 1.5625 uM
  viability at 72 h, 1.5625 uM: 91.2%
[1]; SKOV-3 ovarian adenocarcinoma cells, conc 3.125 uM
  viability at 72 h, 3.125 uM: 84.5%
[1]; SKOV-3 ovarian adenocarcinoma cells, conc 6.25 uM
  viability at 72 h, 6.25 uM: 78.2%
[2]; conc 9.53674e-5 uM
  SKOV3 viability (%): 98.4% and 95.5%
[2]; conc 0.000190735 uM
  SKOV3 viability (%): 101.1% and 93.2%
[2]; conc 0.00038147 uM
  SKOV3 viability (%): 101.8% and 98.2%
[2]; conc 0.000762939 uM
  SKOV3 viability (%): 98.4% and 94.2%
[2]; conc 0.00152588 uM
  SKOV3 viability (%): 99.8% and 104.2%
[2]; conc 0.00305176 uM
  SKOV3 viability (%): 98.8% and 92.1%
[2]; conc 0.00610352 uM
  SKOV3 viability (%): 101.4% and 103.8%
[2]; conc 0.012207 uM
  SKOV3 viability (%): 94.0% and 97.4%
[2]; conc 0.0244141 uM
  SKOV3 viability (%): 103.2% and 105.4%
[2]; conc 0.0488281 uM
  SKOV3 viability (%): 98.2% and 100.0%
[2]; conc 0.0976562 uM
  SKOV3 viability (%): 101.8% and 110.3%
[2]; conc 0.195312 uM
  SKOV3 viability (%): 98.6% and 95.1%
[2]; conc 0.390625 uM
  SKOV3 viability (%): 104.4%
[2]; conc 0.78125 uM
  SKOV3 viability (%): 86.0% and 88.0%
[2]; conc 1.5625 uM
  SKOV3 viability (%): 92.8% and 89.9%
[2]; conc 3.125 uM
  SKOV3 viability (%): 80.6% and 76.1%
[2]; conc 6.25 uM
  SKOV3 viability (%): 79.5%
[2]; conc 12.5 uM
  SKOV3 viability (%): 67.2% and 69.9%
[2]; conc 25 uM
  SKOV3 viability (%): 77.7% and 72.7%
[2]; conc 50 uM
  SKOV3 viability (%): 51.8% and 56.0%
FKBP12 and mTOR; Fluoppi
  PPI-inducing (binding enhancing) activity between FKBP12 and mTOR compared with rapamycin (1), in words: much less potent than 1
FKBP12 and mTOR; Fluoppi, HeLa cells, 1 h treatment, three independent biological replicates, read-out: EC50, induction of the formation of FKBP-mTOR complex
  pEC50: 5.67
FKBP12 and mTOR; conc 9.53674e-5 uM
  Foci intensity: 0.01583 and 0.01285 and 0.01813
FKBP12 and mTOR; conc 0.000190735 uM
  Foci intensity: 0.02463 and 0.01296 and 0.02679
FKBP12 and mTOR; conc 0.00038147 uM
  Foci intensity: 0.01747 and 0.03336 and 0.009483
FKBP12 and mTOR; conc 0.000762939 uM
  Foci intensity: 0.01101 and 0.009441 and 0.01241
FKBP12 and mTOR; conc 0.00152588 uM
  Foci intensity: 0.01354 and 0.009078 and 0.03888
FKBP12 and mTOR; conc 0.00305176 uM
  Foci intensity: 0.02172 and 0.01712 and 0.01571
FKBP12 and mTOR; conc 0.00610352 uM
  Foci intensity: 0.01274 and 0.01148 and 0.02185
FKBP12 and mTOR; conc 0.012207 uM
  Foci intensity: 0.01853 and 0.03131 and 0.01125
FKBP12 and mTOR; conc 0.0244141 uM
  Foci intensity: 0.04 and 0.01743 and 0.009054
FKBP12 and mTOR; conc 0.0488281 uM
  Foci intensity: 0.01856 and 0.02257 and 0.02853
FKBP12 and mTOR; conc 0.0976562 uM
  Foci intensity: 0.02191 and 0.01721 and 0.01479
FKBP12 and mTOR; conc 0.195312 uM
  Foci intensity: 0.01663 and 0.02497 and 0.01905
FKBP12 and mTOR; conc 0.390625 uM
  Foci intensity: 0.01986 and 0.02708 and 0.02914
FKBP12 and mTOR; conc 0.78125 uM
  Foci intensity: 0.02045 and 0.02304 and 0.03319
FKBP12 and mTOR; conc 1.5625 uM
  Foci intensity: 0.09025 and 0.08153 and 0.07652
FKBP12 and mTOR; conc 3.125 uM
  Foci intensity: 0.2188 and 0.1724 and 0.1954
FKBP12 and mTOR; conc 6.25 uM
  Foci intensity: 0.2549 and 0.2832 and 0.2819
FKBP12 and mTOR; conc 12.5 uM
  Foci intensity: 0.2175 and 0.1877 and 0.2688
FKBP12 and mTOR; conc 25 uM
  Foci intensity: 0.2553 and 0.272 and 0.2457
FKBP12 and mTOR; conc 50 uM
  Foci intensity: 0.2721 and 0.2164 and 0.2636
[3]; conc 9.53674e-5 uM
  viability at 72 h, 9.53674e-05 uM: 100%
[3]; conc 0.000190735 uM
  viability at 72 h, 0.000190735 uM: 99.4%
[3]; conc 0.00038147 uM
  viability at 72 h, 0.00038147 uM: 100%
[3]; conc 0.000762939 uM
  viability at 72 h, 0.000762939 uM: 99.9%
[3]; conc 0.00152588 uM
  viability at 72 h, 0.00152588 uM: 101%
[3]; conc 0.00305176 uM
  viability at 72 h, 0.00305176 uM: 103%
[3]; conc 0.00610352 uM
  viability at 72 h, 0.00610352 uM: 98.3%
[3]; conc 0.012207 uM
  viability at 72 h, 0.012207 uM: 100%
[3]; conc 0.0244141 uM
  viability at 72 h, 0.0244141 uM: 102%
[3]; conc 0.0488281 uM
  viability at 72 h, 0.0488281 uM: 101%
[3]; conc 0.0976562 uM
  viability at 72 h, 0.0976562 uM: 97.1%
[3]; conc 0.195312 uM
  viability at 72 h, 0.195312 uM: 95.7%
[3]; conc 0.390625 uM
  viability at 72 h, 0.390625 uM: 94%
[3]; conc 0.78125 uM
  viability at 72 h, 0.78125 uM: 78.6%
[3]; conc 1.5625 uM
  viability at 72 h, 1.5625 uM: 66.2%
[3]; conc 3.125 uM
  viability at 72 h, 3.125 uM: 45.1%
[3]; conc 6.25 uM
  viability at 72 h, 6.25 uM: 45.6%
[3]; conc 12.5 uM
  viability at 72 h, 12.5 uM: 38.2%
[3]; conc 25 uM
  viability at 72 h, 25 uM: 31.3%
[3]; conc 50 uM
  viability at 72 h, 50 uM: 0.9%
T lymphoma Jurkat cells; conc 9.53674e-5 uM
  Jurkat viability (%): 99.0% and 99.6%
T lymphoma Jurkat cells; conc 0.000190735 uM
  Jurkat viability (%): 96.4% and 106.9%
T lymphoma Jurkat cells; conc 0.00038147 uM
  Jurkat viability (%): 106.3% and 110.1%
T lymphoma Jurkat cells; conc 0.000762939 uM
  Jurkat viability (%): 94.3% and 106.0%
T lymphoma Jurkat cells; conc 0.00152588 uM
  Jurkat viability (%): 101.0% and 106.0%
T lymphoma Jurkat cells; conc 0.00305176 uM
  Jurkat viability (%): 97.8%
T lymphoma Jurkat cells; conc 0.00610352 uM
  Jurkat viability (%): 106.2% and 106.5%
T lymphoma Jurkat cells; conc 0.012207 uM
  Jurkat viability (%): 99.3%
T lymphoma Jurkat cells; conc 0.0244141 uM
  Jurkat viability (%): 108.2% and 105.8%
T lymphoma Jurkat cells; conc 0.0488281 uM
  Jurkat viability (%): 103.9% and 107.5%
T lymphoma Jurkat cells; conc 0.0976562 uM
  Jurkat viability (%): 96.8%
T lymphoma Jurkat cells; conc 0.195312 uM
  Jurkat viability (%): 93.3% and 90.8%
T lymphoma Jurkat cells; conc 0.390625 uM
  Jurkat viability (%): 89.0% and 89.4%
T lymphoma Jurkat cells; conc 0.78125 uM
  Jurkat viability (%): 77.6% and 70.2%
T lymphoma Jurkat cells; conc 1.5625 uM
  Jurkat viability (%): 62.3% and 57.2%
T lymphoma Jurkat cells; conc 3.125 uM
  Jurkat viability (%): 49.0% and 51.4%
T lymphoma Jurkat cells; conc 6.25 uM
  Jurkat viability (%): 45.2% and 40.6%
T lymphoma Jurkat cells; conc 12.5 uM
  Jurkat viability (%): 39.4% and 37.1%
T lymphoma Jurkat cells; conc 25 uM
  Jurkat viability (%): 31.9% and 26.3%
T lymphoma Jurkat cells; conc 50 uM
  Jurkat viability (%): 1.0% and 0.558%
